In ChEMBL document CHEMBL1140505, “D-phenylglycinol-derived non-covalent factor Xa inhibitors: effect of non-peptidic S4 linkage elements on affinity and anticoagulant activity” (2007):

Key:
[1] = molecular target: Coagulation factor X (Homo sapiens) (UniProt P00742); test: Binding affinity to F10a
Plasma [2] = test: Anticoagulant activity in human plasma assessed as concentration causing 1.5 times prolongation of prothrombin time; assay type: functional
Plasma [3] = test: Anticoagulant activity in rat plasma assessed as concentration causing 1.5 times prolongation of prothrombin time; assay type: functional
Plasma [4] = test: Anticoagulant activity in dog plasma assessed as concentration causing 1.5 times prolongation of prothrombin time; assay type: functional, Canis lupus familiaris
Plasma [5] = test: Anticoagulant activity in monkey plasma assessed as concentration causing 1.5 times prolongation of prothrombin time; assay type: functional, Macaca mulatta

Sequence of Coagulation factor X (Homo sapiens) (P00742 41-179 limits assumed): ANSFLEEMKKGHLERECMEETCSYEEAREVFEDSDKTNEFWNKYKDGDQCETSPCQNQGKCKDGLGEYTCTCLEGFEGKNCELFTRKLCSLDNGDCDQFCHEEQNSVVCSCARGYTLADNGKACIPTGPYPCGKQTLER
Sequence of Coagulation factor X (Homo sapiens) (P00742 235-488 limits assumed): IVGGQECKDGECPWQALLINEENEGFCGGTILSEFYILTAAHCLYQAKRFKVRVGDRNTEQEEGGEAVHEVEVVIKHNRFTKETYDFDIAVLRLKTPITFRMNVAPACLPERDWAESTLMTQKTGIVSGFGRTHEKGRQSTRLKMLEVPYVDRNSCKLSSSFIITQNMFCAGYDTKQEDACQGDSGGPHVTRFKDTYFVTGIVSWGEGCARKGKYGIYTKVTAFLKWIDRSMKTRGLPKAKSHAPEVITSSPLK

Row | Structure (SMILES) | Kapp [1] | also measured
1 | CC(C)N1CCC(CNC(=O)[C@H](NC(=O)c2ccc3c(Cl)c[nH]c3c2)c2ccccc2)CC1 | 460 10^6L/mol | Activity (Plasma [2]): 0.5 µM; Activity (Plasma [3]): 2.6 µM; Activity (Plasma [4]): 3.2 µM; Activity (Plasma [5]): 0.6 µM
2 | CC(C)N1CCC(CNC[C@H](NC(=O)c2ccc3c(Cl)c[nH]c3c2)c2ccccc2)CC1 | 1200 10^6L/mol | –
3 | CC(C)[C@H](COCC1CCN(C(C)C)CC1)NC(=O)c1ccc2c(Cl)c[nH]c2c1 | 14 10^6L/mol | –
4 | CC(C)N1CCC(COCC(NC(=O)c2ccc3c(Cl)c[nH]c3c2)c2ccccc2Cl)CC1 (stereo not drawn) | 850 10^6L/mol | –
5 | CC(C)N1CCC(CCCC(NC(=O)c2ccc3c(Cl)c[nH]c3c2)c2ccccc2)CC1 (stereo not drawn) | 700 10^6L/mol | –
6 | CCN1CCC(COCC(NC(=O)c2ccc3c(Cl)c[nH]c3c2)c2ccccc2Cl)CC1 (stereo not drawn) | 150 10^6L/mol | –
7 | O=C(NC(COCC1CCN(c2ccncc2)CC1)c1ccccc1Cl)c1ccc2c(Cl)c[nH]c2c1 (stereo not drawn) | 1300 10^6L/mol | –
8 | CC(C)N1CCC(COCC(NC(=O)c2ccc3c(Cl)c[nH]c3c2)c2ccccc2F)CC1 (stereo not drawn) | 650 10^6L/mol | –
9 | CC(C)N1CCC(COC[C@H](NC(=O)c2ccc3cc[nH]c3c2)c2ccccc2)CC1 | 35 10^6L/mol | –
10 | COc1ccc(C(=O)N[C@@H](COCC2CCN(C(C)C)CC2)c2ccccc2)cc1 | 3 10^6L/mol | –
11 | CN1CCC(COCC(NC(=O)c2ccc3c(Cl)c[nH]c3c2)c2ccccc2Cl)CC1 (stereo not drawn) | 65 10^6L/mol | –
12 | CC(C)N1CCC(CN(C)C[C@H](NC(=O)c2ccc3c(Cl)c[nH]c3c2)c2ccccc2)CC1 | 60 10^6L/mol | –
13 | CC(C)N1CCC(COC[C@H](NC(=O)c2ccc3c(Cl)c[nH]c3c2)c2ccccc2)CC1 | 1700 10^6L/mol | Activity (Plasma [2]): 0.4 µM; Activity (Plasma [3]): 0.6 µM; Activity (Plasma [4]): 0.8 µM; Activity (Plasma [5]): 0.4 µM
14 | Cc1c[nH]c2cc(C(=O)N[C@@H](COCC3CCN(C(C)C)CC3)c3ccccc3)ccc12 | 160 10^6L/mol | –
15 | CCCC[C@H](COCC1CCN(C(C)C)CC1)NC(=O)c1ccc2c(Cl)c[nH]c2c1 | 41 10^6L/mol | –
